US4946828A, “Novel insulin peptides” (Novo Nordisk A/S, priority 1985, dated 1990)

Tests used:
[1] = after subcutaneous administration; cited from earlier work
[2] = test system: fasted rabbits; experiment: Test for prolongation of insulin effect (hypoglycemic effect, British Pharmacopoeia 1980, A 142); type: in vivo, rabbit; conditions: for Glucose in percent of initial, 1 h / Glucose in percent of initial, 2 h / Glucose in percent of initial, 4 h / Glucose in percent of initial, 6 h: pH 4.5, 14.3 nmole per rabbit s.c.; for Prolongation of action: about 240 nmole/ml
Experimental: Sterile injectable solutions of the compounds of formula I for testing of the degree of prolonged action were made using 1.6% (w/v) glycerol as the isotonicum, using 0.3% (w/v) m-cresol as the preservative, […] The pH values of the solutions were adjusted sufficiently off the isoelectric point of the compounds of formula I to keep the solutions clear upon storage at 4° C. The solutions contained 240 nmole/ml of the compounds of formula I. The concentration of 240 nmole/ml was established by measurement of the absorbance at 276 nm of a more concentrated stock solution devoid of m-cresol, using the molar extinction coefficient for porcine insulin of 6100 for these derivatives (see Handbuch der Inneren Medizin, Vol. 7/Part 2A, Editor: Oberdisse, 1975, 113). […] 1 U corresponds to 5.95 nmole.
Injectable solutions containing 240 nmole/ml of the compounds of formula I stated in Table II and having the pH values and content of zinc stated therein were made.
The prolongation of the hypoglycemic effect produced by the injectable solutions of insulin was tested according to British Pharmacopoeia 1980, A 142, in fasted rabbits. Each test solution was administered subcutaneously in a dosis of 14.3 nmole per rabbit in 12 animals weighing 3-4 kg, and the course of the hypoglycemia was followed for 6 hours.

[3] = test system: mouse; experiment: Mouse blood sugar depletion test (British Pharmacopoeia 1980, A 141-A 142); type: in vivo; conditions: solutions without additions of zinc (zinc content 8-10 μg/ml from crystals); estimated potencies
Experimental: The potencies of insulin compounds were accessed in the mouse blood sugar depletion test (British Pharmacopoeia 1980, A 141-A 142). In order to minimize the problem of estimating potency of insulins having a timing different from the standard, insulin solutions for potency determinations were made up without additions of zinc. Solutions were made up to contain […] based on the absorbance at 276 nm. The zinc content of solutions were 8-10 μg/ml, arising from the crystalline derivatives.

Substance	Glucose in percent of initial, 1 h ([2]; Zn++ 80 μg/ml)	Glucose in percent of initial, 2 h ([2]; Zn++ 80 μg/ml)	Glucose in percent of initial, 4 h ([2]; Zn++ 80 μg/ml)	Glucose in percent of initial, 6 h ([2]; Zn++ 80 μg/ml)	Potency relative to insulin, % [3] [%]	other results
A1,B29-di-Boc substituted insulin	–	–	–	–	–	Prolonged insulin action [1]: too slightly prolonged action to be clinically useful
Arg^B27 human insulin [Arg^B27 insulin]	45% of initial	34% of initial	51% of initial	91% of initial	87	–
Arg^B27,Lys^B30 --NH2 human insulin [Arg^B27,Lys^B30 --NH2 insulin]	85% of initial	83% of initial	81% of initial	79% of initial	84	Glucose in percent of initial, 1 h ([2]; Zn++ 10.9 μg/ml): 78% of initial; Glucose in percent of initial, 2 h ([2]; Zn++ 10.9 μg/ml): 73% of initial; Glucose in percent of initial, 4 h ([2]; Zn++ 10.9 μg/ml): 69% of initial; Glucose in percent of initial, 6 h ([2]; Zn++ 10.9 μg/ml): 67% of initial
Arg^B27,Thr^B30 --NH2 human insulin [Arg^B27,Thr^B30 --NH2 insulin]	88% of initial	86% of initial	85% of initial	81% of initial	92	Prolongation of action ([2]; 3 zinc atoms per hexamer, 8 μg zinc/ml): very prolonged action; Glucose in percent of initial, 1 h ([2]; Zn++ […]): 62% of initial; Glucose in percent of initial, 2 h ([2]; Zn++ […]): 64% of initial; Glucose in percent of initial, 4 h ([2]; Zn++ […]): 66% of initial; Glucose in percent of initial, 6 h ([2]; Zn++ […]): 67% of initial
Gln^A4 insulin	–	–	–	–	79	–
Gln^A17,Arg^B27,Thr^B30 --NH2 human insulin [Gln^A17,Arg^B27,Thr^B30 --NH2 insulin]	–	–	–	–	71	–
Gln^A17,Arg^B27human insulin [Gln^A17,Arg^B27 insulin]	53% of initial	47% of initial	50% of initial	66% of initial	69	–
Gln^A17,Gln^B13,Thr^B30 --NH2 human insulin [Gln^A17,Gln^B13,Thr^B30 --NH2 insulin]	–	–	–	–	49	–
Gln^A17,Lys^B30 --NH2 human insulin [Gln^A17,Lys^B30 --NH2 insulin]	60% of initial	56% of initial	73% of initial	86% of initial	62	–
Gln^A17,Thr^B30 --NH2 human insulin [Gln^A17,Thr^B30 --NH2 insulin]	65% of initial	63% of initial	68% of initial	83% of initial	67	–
Gln^B13,Arg^B27 human insulin [Gln^B13,Arg^B27 insulin]	55% of initial	46% of initial	61% of initial	91% of initial	78	–
Gln^B13,Arg^B27,Thr^B30 --NH2 human insulin [Gln^B13,Arg^B27,Thr^B30 --NH2 insulin]	–	–	–	–	62	–
Gln^B13,Gln^A17 human insulin [Gln^A17,Gln^B13 insulin]	53% of initial	47% of initial	55% of initial	82% of initial	50	–
Gln^B13,Thr^B30 --NH2 human insulin [Gln^B13,Thr^B30 --NH2 insulin]	–	–	–	–	–	Glucose in percent of initial, 1 h ([2]; Zn++ […]): 91% of initial; Glucose in percent of initial, 2 h ([2]; Zn++ […]): 92% of initial; Glucose in percent of initial, 4 h ([2]; Zn++ […]): 92% of initial; Glucose in percent of initial, 6 h ([2]; Zn++ […]): 90% of initial
Gln^B21 insulin	–	–	–	–	96	–
Lys^B27 human insulin [Lys^B27 insulin]	47% of initial	40% of initial	55% of initial	93% of initial	88	–
Lys^B27,Lys^B30 --NH2 human insulin [Lys^B27,Lys^B30 --NH2 insulin]	–	–	–	–	56	Glucose in percent of initial, 1 h ([2]; Zn++ 9.5 μg/ml): 72% of initial; Glucose in percent of initial, 2 h ([2]; Zn++ 9.5 μg/ml): 65% of initial; Glucose in percent of initial, 4 h ([2]; Zn++ 9.5 μg/ml): 65% of initial; Glucose in percent of initial, 6 h ([2]; Zn++ 9.5 μg/ml): 60% of initial
Lys^B27,Thr^B30 --NH2 human insulin [Lys^B27,Thr^B30 --NH2 insulin]	–	–	–	–	82	Glucose in percent of initial, 1 h ([2]; Zn++ […]): 56% of initial; Glucose in percent of initial, 2 h ([2]; Zn++ […]): 55% of initial; Glucose in percent of initial, 4 h ([2]; Zn++ […]): 62% of initial; Glucose in percent of initial, 6 h ([2]; Zn++ […]): 61% of initial
Lys^B30 --NH2 insulin	74% of initial	83% of initial	80% of initial	82% of initial	–	Prolongation of action ([2]; 30 zinc per hexamer, 80 μg zinc/ml): moderate prolongation of action
